Here are results for 20 molecules from patent publication US10449208B2, “Antiviral prodrugs of tenofovir” (Merck Sharp & Dohme Corp., priority 2016, dated 2019).

The term IC50 denotes the concentration needed to halve the response being measured.

The nature of data set [1]: Prodrug stability assay in bio-relevant media (FaSSIF with Pancreatin, simulated gastrointestinal tract conditions). It is filed as in vitro ADME. The following applies: % parent prodrug remaining at 5 h vs 0 h, 37° C., 0.5 mg/mL Pancreatin in FaSSIF, HPLC area ratio. How it is done:
Prodrug Stability Assay in Bio-Relevant Media
The following assay was employed to evaluate the stability of the prodrugs in simulated gastrointestinal tract conditions. Preparation of fasted state simulated intestinal fluid (FaSSIF) using Phares SIF Powder was carried out according to protocols from Phare Drug Delivery AG (Baselland, Switzerland). For sample preparation, 10 μL stock solutions (10 mM) of prodrug substance in DMSO was added to 990 μL of 0.5 mg/mL Pancreatin solution (Fisher CAS#8049-47-6) in FaSSIF. Two samples were prepared for each compound at initial. If the sample was clear solution at the beginning, ran one sample directly as initial by HPLC; if the sample was not clear at starting, diluted the sample by 100% ACN. Put the other sample under 37° C. and observed the sample at 5 h time-point. At 5 h time point, if the sample was clear solution then performed HPLC analysis directly; if it was not clear solution, diluted the sample by 100% ACN and assayed by HPLC. All the samples were vortexed for 3 min and observed before injection. For the diluted samples, the area will be multiplied by a factor when data analysis. The analysis was carried out with an Agilent 1100 series HPLC with autosampler. The column was usually a Poroshell 120 EC -C18, 4.6×50 mm, 2.7 μm. The flow rate was 1.8 mL/min, and the injection volume was 5 or 10 μL. UV detection was in the range 210-400 nm. The mobile phase consisted of solvent A (water plus 10 mM tetrabutylammonium bromide) and solvent B (acetonitrile) with a gradient of 90% solvent A at 0 min changing to 95% solvent B over 6 min, maintained for 1.5 min, then reverting to 90% solvent A over 1.6 min. The area of the parent in prodrug at 5h time point was divided by the area of the parent in prodrug at 0 h time point, to generate the % claimed parent ratio, which are summarized in Table 2 for GI Tract stability.

Data set [2] concerns HIV-1 (H9/IIIB strain). Kind of data set: Multiple round HIV-1 infection assay (Viking assay) in MT4-GFP cells. The settings on record: MT4-GFP cells infected with HIV-1 H9/IIIB, inhibition of reproductive ratio R0. It is filed as cell-based. How it is done: Assessing Antiviral Potency in a Multiple Round HIV-1 Infection Assay (Viking Assay)
The antiviral activity of the tenofovir prodrugs of the Examples herein was assessed in an assay that measures the rate of replication of HIV in cell culture, termed the Viking assay (Viral KINetics in Green cells) and performed as follows. HIV-1 replication was monitored using MT4-gag-GFP clone D3 (hereafter designated MT4-GFP), which are MT-4 cells modified to harbor a GFP reporter gene, the expression of which is dependent on the HIV-1 expressed proteins tat and rev. Productive infection of an MT4-GFP cell with HIV-1 results in GFP expression approximately 24 h post-infection. MT4-GFP cells were maintained at 37° C./5% CO2/90% relative humidity in RPMI 1640 supplemented with 10% fetal bovine serum, 100 μ/ml penicillin/streptomycin, and 400 μg/ml G418 to maintain the reporter gene. For infections, MT4-GFP cells were placed in the same medium lacking G418 and infected overnight with HIV-1 (H9/IIIB strain) virus at an approximate multiplicity of infection of 0.01 in the same incubation conditions. Cells were then washed and re-suspended in either RPMI 1640 supplemented with 10% or 50% normal human serum (NFIS) at 1.6×10^5 cells/mL (10% NHS or 50% NHS, respectively). Compound plates were prepared by dispensing compounds dissolved in DMSO into wells of 384 well poly-D -lysine-coated plates (0.2 μl/well) using an ECHO acoustic dispenser. Each compound was tested in a 10-point serial 3-fold dilution (typical final concentrations: 8.4 μM-0.42 nM). Controls included no inhibitor (DMSO only) and a combination of three antiviral agents (efavirenz, indinavir, an in-house integrase strand transfer inhibitor at final concentrations of 4 μM each). Cells were added (50 μL/well) to compound plates and the infected cells were maintained at 37° C./5% CO2/90% relative humidity.
infected cells were quantified at two time points, ˜48 h and ˜72 h post -infection, by counting the number of green cells in each well using an Acumen eX3 scanner. The increase in the number of green cells over ˜24 h period gives the reproductive ratio, R0, which is typically 5-15 and has been shown experimentally to be in logarithmic phase (data not shown). Inhibition of R0 is calculated for each well, and IC50s determined by non-linear 4-parameter curve fitting.

Where [3] appears, read: Human immunodeficiency virus 1, IIIB, 10% normal human serum, read-out: Viking, IC50 (10% NHS).
The mark [4] stands for this setting: Human immunodeficiency virus 1, IIIB, 50% normal human serum, read-out: Viking, IC50 (50% NHS).
Where [5] appears, read: 50% normal human serum, read-out: Viking, IC50 (50% NHS).
Where [6] appears, read: 10% normal human serum, read-out: Viking, IC50 (10% NHS).

Where two headings read alike, the source gives them in different places.

For the molecule `CC(C)OC(=O)COP(=O)(CO[C@H](C)Cn1cnc2c(N)ncnc21)NC(C)(C)C(=O)OCc1ccccc1` (mixture of isomers) [Example 42, Benzyl 2-((((((R)-1-(6-amino-9H-purin-9-yl)propan-2-yl)oxy)methyl)(2-isopropoxy-2-oxoethoxy)phosphoryl)amino)-2-methylpropanoate], the “GI Tract stability” value in data set [1] was 73.54%. Moreover, the figures for the IC50 in data set [2] (setting [3]) and in data set [2] (setting [4]) were 5 nM and 21.8 nM, respectively.
With `CC(C)OC(=O)[C@H](C)OP(=O)(CO[C@H](C)Cn1cnc2c(N)ncnc21)NC(C)(C)C(=O)OC(C)C` (single isomer, unassigned) [Example 1A], the “GI Tract stability” value in data set [1] was 85.74%. The IC50 in data set [2] (setting [3]) was 14.7 nM; in data set [2] (setting [5]), 61.1 nM.
Consider `CC(C)OC(=O)[C@H](C)OP(=O)(CO[C@H](C)Cn1cnc2c(N)ncnc21)NC(C)(C)C(=O)OC(C)C` (single isomer, unassigned) [Example 1B], for which the “GI Tract stability” value in data set [1] was 99.82%. For the same molecule, the figures for the concentration for half-maximal inhibition (IC50) in data set [2] (setting [6]) and in data set [2] (setting [5]) were 7.43 nM and 12.1 nM, respectively.
For `CCCCCOC(=O)C(C)(C)NP(=O)(CO[C@H](C)Cn1cnc2c(N)ncnc21)O[C@@H](C)C(=O)OC(C)C` (single isomer, unassigned) [Example 2A] the same measures were 61.61%, 4.05 nM and 22.1 nM.
Regarding `CCCCCOC(=O)C(C)(C)NP(=O)(CO[C@H](C)Cn1cnc2c(N)ncnc21)O[C@@H](C)C(=O)OC(C)C` (single isomer, unassigned) [Example 2B], the “GI Tract stability” value in data set [1] is listed as 91.95%. For the same molecule, the results for the half-maximal inhibitory concentration (IC50) in data set [2] (setting [6]) and in data set [2] (setting [5]) were 18.2 nM and 70.9 nM, respectively.
Consider `CC(C)OC(=O)COP(=O)(CO[C@H](C)Cn1cnc2c(N)ncnc21)NC(C)(C)C(=O)OC(C)C` (single isomer, unassigned) [Example 3A], for which the “GI Tract stability” value in data set [1] is reported as 96.63%. Also, the results for the IC50 in data set [2] (setting [3]) and in data set [2] (setting [5]) were 36.6 nM and 121 nM, respectively.
Take `CC(C)OC(=O)COP(=O)(CO[C@H](C)Cn1cnc2c(N)ncnc21)NC(C)(C)C(=O)OC(C)C` (single isomer, unassigned) [Example 3B]: the “GI Tract stability” value in data set [1] is given as 95.71%. Besides, the values for the IC50 in data set [2] (setting [6]) and in data set [2] (setting [5]) were 29.1 nM and 47.9 nM, respectively.
In the case of `CCCCCOC(=O)C(C)(C)NP(=O)(CO[C@H](C)Cn1cnc2c(N)ncnc21)OCC(=O)OC(C)C` (single isomer, unassigned) [Example 4A], the “GI Tract stability” value in data set [1] is given as 99.07%. For the same molecule, the concentration for half-maximal inhibition (IC50) was 13.9 nM in data set [2] (setting [3]) and 86.5 nM in data set [2] (setting [4]).
In the case of `CCCCCOC(=O)C(C)(C)NP(=O)(CO[C@H](C)Cn1cnc2c(N)ncnc21)OCC(=O)OC(C)C` (single isomer, unassigned) [Example 4B], the “GI Tract stability” value in data set [1] was 98.87%. The IC50 in data set [2] (setting [6]) is 19.4 nM; in data set [2] (setting [5]) it was 158 nM.
`CCCCCCOC(=O)C(C)(C)NP(=O)(CO[C@H](C)Cn1cnc2c(N)ncnc21)OCC(=O)OC(C)C` (single isomer, unassigned) [Example 6A]: the “GI Tract stability” value in data set [1] is recorded as 95.97%. In addition, the IC50 came to 3.14 nM in data set [2] (setting [3]) and 15.2 nM in data set [2] (setting [4]).
For the molecule `CCCCCCOC(=O)C(C)(C)NP(=O)(CO[C@H](C)Cn1cnc2c(N)ncnc21)OCC(=O)OC(C)C` (single isomer, unassigned) [Example 6B], the “GI Tract stability” value in data set [1] was 73.16%. Besides, the IC50 in data set [2] (setting [6]) is 2.14 nM; in data set [2] (setting [5]), 7.99 nM.
As to `CCCCCCOC(=O)C(C)(C)NP(=O)(CO[C@H](C)Cn1cnc2c(N)ncnc21)O[C@@H](C)C(=O)OC(C)C` (single isomer, unassigned) [Example 7A], the “GI Tract stability” value in data set [1] is listed as 15.36%. In addition, the IC50 worked out at 5.03 nM in data set [2] (setting [6]) and 21 nM in data set [2] (setting [5]).
As for `CCCCCCOC(=O)C(C)(C)NP(=O)(CO[C@H](C)Cn1cnc2c(N)ncnc21)O[C@@H](C)C(=O)OC(C)C` (single isomer, unassigned) [Example 7B], in data set [1], the “GI Tract stability” value is listed as 76.64%. Besides, the figures for the IC50 in data set [2] (setting [6]) and in data set [2] (setting [5]) were 0.37 nM and 1.01 nM, respectively.
As for `CCCCCOC(=O)COP(=O)(CO[C@H](C)Cn1cnc2c(N)ncnc21)NC(C)(C)C(=O)OC(C)C` (single isomer, unassigned) [Example 8A], the “GI Tract stability” value in data set [1] is 94.11%. Also, the IC50 in data set [2] (setting [6]) was found to be 6.76 nM; in data set [2] (setting [5]) it was 27 nM.
As to `CCCCCOC(=O)COP(=O)(CO[C@H](C)Cn1cnc2c(N)ncnc21)NC(C)(C)C(=O)OC(C)C` (single isomer, unassigned) [Example 8B], in data set [1], the “GI Tract stability” value was 71.6%. The concentration for half-maximal inhibition (IC50) in data set [2] (setting [6]) was 22.7 nM; in data set [2] (setting [5]), 161 nM.
Regarding `CCCCCCOC(=O)C(C)(C)NP(=O)(CO[C@H](C)Cn1cnc2c(N)ncnc21)O[C@@H](C)C(=O)OCC` (stereo partly drawn) [Example 43, Hexyl 2-((((((R)-1-(6-amino-9H-purin-9-yl)propan-2-yl)oxy)methyl)(((S)-1-ethoxy-1-oxopropan-2-yl)oxy)phosphoryl)amino)-2-methylpropanoate], the IC50 in data set [2] (setting [3]) amounted to 6.15 nM; in data set [2] (setting [4]), 20.4 nM.
For `CCCCCCOC(=O)C(C)(C)NP(=O)(CO[C@H](C)Cn1cnc2c(N)ncnc21)OC(C)(C)C(=O)OC(C)C` (stereo partly drawn) [Example 44, Hexyl 2-((((((R)-1-(6-amino-9H-purin-9-yl)propan-2-yl)oxy)methyl)((1-isopropoxy-2-methyl-1-oxopropan-2-yl)oxy)phosphoryl)amino)-2-methylpropanoate], the values for the IC50 in data set [2] (setting [3]) and in data set [2] (setting [4]) were 1.42 nM and 1.81 nM, respectively.
In the case of `CC(C)OC(=O)[C@H](C)OP(=O)(CO[C@H](C)Cn1cnc2c(N)ncnc21)NC1(C(=O)OC(C)C)CCCC1` (stereo partly drawn) [Example 48, Isopropyl 1-((((((R)-1-(6-amino-9H-purin-9-yl)propan-2-yl)oxy)methyl)(((S)-1-isopropoxy-1-oxopropan-2-yl)oxy)phosphoryl)amino)cyclo-pentane-1-carboxylate], the concentration for half-maximal inhibition (IC50) in data set [2] (setting [3]) stood at 13.3 nM; in data set [2] (setting [4]), 37.3 nM.
On the same counts, the results for `CC(C)OC(=O)[C@H](C)OP(=O)(CO[C@H](C)Cn1cnc2c(N)ncnc21)NC1(C(=O)OC(C)C)CCC1` (stereo partly drawn) [Example 50, Isopropyl 1-((((((R)-1-(6-amino-9H-purin-9-yl)propan-2-yl)oxy)methyl)(((S)-1-isopropoxy-1-oxopropan-2-yl)oxy)phosphoryl)amino)cyclo-butane-1-carboxylate] are 8.66 nM and 34.3 nM.
`CC(C)OC(=O)[C@H](C)OP(=O)(CO[C@H](C)Cn1cnc2c(N)ncnc21)NC1(C(=O)OC(C)C)CCCCC1` (stereo partly drawn) [Example 52, Isopropyl 1-((((((R)-1-(6-amino-9H-purin-9-yl)propan-2-yl)oxy)methyl)(((S)-1-isopropoxy-1-oxopropan-2-yl)oxy)phosphoryl)amino)cyclo-hexane-1-carboxylate]: the IC50 in data set [2] (setting [3]) came to 10.8 nM; in data set [2] (setting [4]), 45.6 nM.
